Source: PubChem BioAssay AID1159562 (GlaxoSmithKline (GSK), 2015)
The source made the active and inactive calls. No rule for the calls is given here.

tested on: Trypanosoma brucei growth inhibition, luminescence; experiment: antitrypanosomal activity against T. brucei – luminescence (AID 1159562);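 also: parasites grew with compound for 24 h before the luminescence read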

SMILES	IC50
O=C(Nc1nc(-c2ccccn2)cs1)N1C[C@H]2C[C@@]2(c2ccccc2)C1	0.63 µM
O=C(NCCc1nc(-c2ccc(F)c(F)c2)n[nH]1)C1CCCCC1	1 µM
Nc1nc(-c2ccccn2)nc(-n2nc(-c3ccccc3)cc2N)n1	3.2 µM
O=C(O)[C@H]1C[C@@H]1c1ccc(-c2ccc(CN(CCc3ccccn3)C(=O)C3CCC3)cc2)cc1	0.79 µM
Cn1c(CN2CCN(c3ncc(C(F)(F)F)cc3Cl)CC2)nc2ccncc21	> 40 µM (inactive)
COc1ccc(CN2CCCCC2c2nc(-c3cccnc3)no2)cc1 (stereo not drawn)	> 40 µM (inactive)
O=C(Nc1nc(-c2ccc(S(=O)(=O)N3CCOCC3)cc2)cs1)c1ccc([N+](=O)[O-])cc1	10 µM
NC(N)=Nc1nc(-c2ccc(NC(N)=NCCN3CCCC3)cc2)cs1	0.1 µM
N#Cc1ccc(S(=O)(=O)N2CCN(Cc3cccc(-c4ccncc4)c3)CC2)cc1	20 µM
O=c1cc(NCCCNCc2c[nH]c3ccc(Br)cc23)[nH]c2ccccc12	0.79 µM
CCN(C)Cc1ccc(N2CCC(NS(=O)(=O)c3ccc4c(c3)CCO4)CC2)nc1	40 µM
CCN(Cc1nc2ccc(C(=O)N3CCN(c4ncccn4)CC3)cc2[nH]1)C1CCCc2cccnc21 (stereo not drawn)	5 µM
COc1ccc(C2CC(c3ccccc3Cl)=NN2C(=O)CNC(=O)C2CCCC2)cc1 (stereo not drawn)	0.79 µM
Cc1nnnn1-c1cccc(C(=O)N2CCC[C@@]3(C)c4ncncc4CCC23)c1 (stereo partly drawn)	> 40 µM (inactive)
CCc1cccc(CC)c1-n1c(SCC(=O)NC(=O)NCc2ccco2)nnc1-c1cccnc1	0.79 µM
Cc1nc2c(-c3n[nH]c(-c4ccccc4N)n3)cccn2c1C	2.5 µM
Cc1cc(N(C)C)nc2ccc(Cc3cnc(N)nc3N)cc12	5 µM
N#Cc1cccc(CNc2ccc(-c3cnn(CC4CC4)c(=O)c3C#N)cc2)c1	13 µM
Nc1nccc(-c2csc(Nc3ccc(Cl)cc3)n2)n1	> 40 µM (inactive)
CCN(CC)S(=O)(=O)c1ccc(OC)c(NC(=O)c2ccc([N+](=O)[O-])s2)c1	0.63 µM
CC(C)c1nn(-c2nc(N)nc(-c3ccccn3)n2)c(N)c1C1CCCCC1	7.9 µM
CC(C)(C)c1cc(NC2CC2)nc(-c2ccccn2)n1	2.5 µM
O=C(NCc1nnc2n1CCCCC2)c1ccc(-c2ccc(F)cc2)o1	0.25 µM
O=C(CSc1ccc(F)cc1)N[C@@H](Cc1cnc[nH]1)C(=O)NCCc1ccccc1	> 40 µM (inactive)
O=C(CN1CCN(S(=O)(=O)c2cccc([N+](=O)[O-])c2)CC1)Nc1ccc(Oc2ccccc2)cc1	16 µM

SMILES	IC50
CN(Cc1nnnn1C1CCN(Cc2ccc(-n3ccnc3)cc2)CC1)c1ccc(F)cc1F	> 40 µM (inactive)
Cc1sc(C)c(C(F)(F)F)c1CNCCCNc1cc(=O)c2ccccc2[nH]1	0.013 µM
NC(=O)c1ncccc1Nc1nc(NC2CCC(O)CC2)ncc1Br (stereo not drawn)	0.63 µM
CN(C(=O)Nc1ccc2c(c1)CCN(C1CCC1)CC2)c1ccc(C#N)cc1	0.63 µM
CCCC(=O)N(Cc1ccccn1)c1nc2ccccc2s1	> 40 µM (inactive)
COc1ccc(NS(=O)(=O)c2cc(-c3cc(C)[nH]n3)ccc2C)cc1OC	0.63 µM
Cc1ccc(-c2csc(NC(=O)C=Cc3ccc(S(=O)(=O)N4CCOCC4)cc3)n2)o1	5 µM
O=C(COc1ccccc1)Nc1ccccc1C(=O)Nc1nccs1	0.63 µM
CN(Cc1cccnc1)Cc1ccc(N2CCN(C(=O)C3(c4ccc(Cl)cc4)CC3)CC2)nc1	25 µM
Cc1cc(C)nc(N2CCC(N(Cc3cccnc3)C(=O)c3cccc(C#N)c3)CC2)n1	> 40 µM (inactive)
CCN(CC)S(=O)(=O)c1ccc(Cn2nc(C(=O)Nc3ccncn3)c3ccccc32)cc1	> 40 µM (inactive)
CC1(Oc2cncc(Cl)c2)CCN(Cc2cc3ccccc3[nH]2)C1 (stereo not drawn)	> 40 µM (inactive)
COc1cccc(CCNC(=O)C(c2cn[nH]c2)N2CCN(c3ccc(Cl)cc3)CC2)c1 (stereo not drawn)	32 µM
Cc1nc(N2CC(C)OC(C)C2)sc1C(=O)Nc1ccc2c(c1)OCO2 (stereo not drawn)	> 40 µM (inactive)
COc1ccc([N+](=O)[O-])cc1NC(=O)c1cc(Cl)ccc1O	25 µM
O=C(COc1nn(-c2ccccc2)c2ncccc12)NCc1ccccc1	> 40 µM (inactive)
O=C(Cn1cnc2c(-c3ccccc3)csc2c1=O)N1CCCCC1	1 µM
O=C(Nc1cccc(Cl)c1)Nc1ccc([N+](=O)[O-])cc1Cl	3.2 µM
Cc1nn(-c2ccccc2)nc1CNC(=O)CN(Cc1ccccn1)Cc1ccccn1	10 µM
O=S(=O)(c1cccc(CSc2nnc(-c3ccc4c(c3)OCO4)o2)c1)N1CCOCC1	> 40 µM (inactive)
COc1ccc2ncc(F)c(NC(=O)C3(O)CCC(NCc4ccc5c(c4)OCCO5)CC3)c2n1 (stereo not drawn)	1.6 µM
COc1ccc(CNc2cc(C3CC3)nc(-c3nccn3C)n2)cc1	2.5 µM
COc1ccc(C(=O)Nc2c(C)nn(COc3cccc(C(F)(F)F)c3)c2C)cc1	0.79 µM
COc1ccc(Nc2nc(NC3CCC(O)CC3)ncc2Br)c(C(N)=O)c1 (stereo not drawn)	0.25 µM
O=C(CSc1ccc(-c2ccccn2)nn1)Nc1ccc(Cl)cc1	> 40 µM (inactive)

SMILES	IC50
COc1cccc(-c2c(C)nn(-c3nc(N)nc(-c4ccccn4)n3)c2N)c1	> 40 µM (inactive)
O=C(CSc1nnc(-c2ccc3c(c2)OCO3)o1)N(Cc1ccco1)CC(F)(F)F	> 40 µM (inactive)
Cc1ccc(NC(C)C(=O)Nc2ccc(C#N)cc2)cc1S(=O)(=O)N1CCCCC1 (stereo not drawn)	10 µM
NC(=O)c1ccsc1NC(=O)c1ccc([N+](=O)[O-])s1	1.6 µM
N#Cc1cc(N2CCCC2=O)ccc1Sc1ccccc1CO	32 µM
CC(C)(C)CC(=O)NCCc1csc(-c2ccc(F)cc2)n1	0.5 µM
Cc1cc(N2CCc3ccccc3C2)nc(Nc2ccc(S(=O)(=O)N3CCOCC3)cc2)n1	> 40 µM (inactive)
Cc1[nH]nc(C(F)(F)F)c1NC(=O)CCn1cc(Cl)c([N+](=O)[O-])n1	0.79 µM
CC1CCCN(S(=O)(=O)c2ccc(C(=O)Nc3nc(-c4ccccn4)cs3)cc2)C1 (stereo not drawn)	0.4 µM
COCc1cc(Nc2ccc(Cl)cc2)nc(-c2ccccn2)n1	> 40 µM (inactive)
CC(C)(C)C(=O)NCCc1csc(-c2ccc(F)cc2)n1	0.79 µM
O=c1ccc2ccc(F)c3c2n1C[C@H]3CN1CCN(CC(O)c2cc3c(cn2)OCS3)CC1 (stereo partly drawn)	0.4 µM
Cc1cccc(N2CCCN(Cc3c[nH]c4ccccc34)CC2)n1	13 µM
CNc1nc(C)nc(N2CCc3cc(C(=O)NCc4ccc(-c5ccn[nH]5)cc4Cl)ccc32)n1	10 µM
CCc1c(C)nc(-n2nc(C)cc2NC(=O)COc2ccccc2F)[nH]c1=O	0.2 µM
Cc1cc(Br)cc(C(=O)c2c(C(C)C)c(=O)[nH]c(=O)n2Cc2ccnc(N)c2)c1	25 µM
CC1=NN(C(=O)CCn2cnc([N+](=O)[O-])n2)C(O)(C(F)(F)F)C1 (stereo not drawn)	> 40 µM (inactive)
NS(=O)(=O)c1ccc(Nc2ncc3cccc(OC4CCNCC4)c3n2)cc1	0.32 µM
Cc1nc(C(=O)Nc2ccc3c(c2)OCO3)nn1-c1ccc(F)cc1	> 40 µM (inactive)
COc1ccc(-c2cnc(NC(=O)c3cc(-c4ccccn4)n[nH]3)n2C)cc1	10 µM
O=C(CN(Cc1ccccn1)Cc1ccccn1)NCc1ccc2c(c1)OCO2	20 µM
Cc1ccc(C)c(CN2C(=O)NC3(CCc4ccccc43)C2=O)c1 (stereo not drawn)	1 µM
CCS(=O)(=O)Nc1ccc(C2=NN(C(=O)c3cccs3)C(c3ccccc3OC)C2)cc1 (stereo not drawn)	16 µM
